Peptide text beside a SMILES is read from it. * marks the point of attachment. Cbz = O=C(OCc1ccccc1)*
Experiments:
Format in all cases: cell-based
[1] = test system: TNBC cells (Hs578T, MDA-MB157, MDA-MB468); experiment: MTT assay for viability of TNBC cells transfected with BIKDD and treated with IRE1α inhibitor; conditions: combined with BIKDD
Experimental: FIG. 7. […] (a, c) MTT assay for the viability of indicated TNBC cells transfected with […] CMV-BIKDD (a) or VISA-BIKDD (c) and treated with 10 or 100 μM STF-083010 for 48 h. CI values are indicated. (b) Western blot analysis of cleaved PARP in indicated TNBC cells transfected with CMV-BIKDD and treated with 100 μM STF-083010 for 36 h. […] Tumor volume were measured at indicated days and plotted. Data are mean±s.d., *P<0.05; ***P<0.001 by two-way ANOVA with Turkey's post test, n=5. Tumors were surgically removed at day 49 and their sizes are shown on the right. (e) Mice orthotopically implanted with Hs578T cells and treated with VISA-BIKDD lipid nanoparticle together with STF-083010 or DMSO starting at day 28 after tumor cell implantation (see Materials and Methods). Tumor volume were measured at indicated days and plotted. Data are mean±s.d., ***P<0.001 by two-way ANOVA with Turkey's post test, n=5. Tumors were surgically removed at day 66 and their sizes are shown on the right.
MDA-MB157 and MDA-MB 468 cells were seeded at a density of 5×10^3 cells and Hs578T cells were at 2×10^3 cells in 96-well plates. Cells were transfected with BIKDD. In the next day, cells were treated with IRE1α inhibitor or DMSO for 48 h and then with 0.4 mg/ml methylthiazolyldiphenyltetrazolium bromide (MTT) (Sigma) for 2 h. Cells were dissolved in DMSO, followed by absorbance measurement at 590 nm. The combination index (CI) was calculated using the equation: CI=CA/IC50A+CB/IC50B. CA and CB represent the concentrations of the two agents for combined treatment. IC50A and IC50B are the IC50 values for each single treatment, which were determined by treating cells with various dosages of each agent followed by MTT assay. (CI<1) indicates a synergistic effect, (CI>1) corresponds to an antagonistic effect, and (CI=1) represents an additive effect.

BIK [2] = experiment: Western blot analysis of BIK expression in HCT116 cells; conditions: p53-dependent manner, FIG. 5b
Experimental: (§1) FIG. 5. […] (a) RT-qPCR analysis of ASB11 mRNA expression in indicated HCT116 cells treated with indicated dosages of doxorubicin or 5-FU for 24 h. […] (b) Western blot analysis of BIK and ASB11 expression in indicated HCT116 cells treated as in (a). (c) HCT116 p53^+/+ cells stably expressing control or ASB11 shRNA were treated with 10 μM 5-FU for 24 h and then with cycloheximide for indicated time points. Cells were lysed for Western blot analysis of BIK expression and the relative amounts of BIK are indicated on the bottom. The expression levels of ASB11 and BIK in the stable lines are shown on the bottom panel. (d) Western blot analysis of IRE1α expression and RT-qPCR analysis of XBP1 mRNA splicing in indicated HCT116 cells treated with 3 μg/ml doxorubicin or 10 μM 5-FU for 24 h. (e) RT-qPCR analysis of ASB11 and XBPls mRNA expression in HCT116 cells transfected with XBP1s and/or treated with 3 μg/ml doxorubicin for 16 h. […]
(§2) Cell extraction was performed with RIPA lysis buffer containing 50 mM Tris (pH 8.0), 0.15 M NaCl, 1% NP40, 1% sodium deoxycholate, 0.1% SDS, 1 mM PMSF, 1 µg/ml aprotinin, and 1 µg/ml leupeptin. […] Immunoprecipitation was performed and analyzed as previously described. […] The beads were washed with RIPA lysis buffer and the bound proteins were analyzed by Western blot.

BIK [3] = experiment: Cycloheximide-chase analysis of BIK protein stability in HCT116 p53+/+ cells; conditions: p53-proficient HCT116 cells, 10 μM 5-FU 24 h then cycloheximide; FIG. 5c
Experimental: FIG. 5. […] (a) RT-qPCR analysis of ASB11 mRNA expression in indicated HCT116 cells treated with indicated dosages of doxorubicin or 5-FU for 24 h. […] (b) Western blot analysis of BIK and ASB11 expression in indicated HCT116 cells treated as in (a). (c) HCT116 p53^+/+ cells stably expressing control or ASB11 shRNA were treated with 10 μM 5-FU for 24 h and then with cycloheximide for indicated time points. Cells were lysed for Western blot analysis of BIK expression and the relative amounts of BIK are indicated on the bottom. The expression levels of ASB11 and BIK in the stable lines are shown on the bottom panel. (d) Western blot analysis of IRE1α expression and RT-qPCR analysis of XBP1 mRNA splicing in indicated HCT116 cells treated with 3 μg/ml doxorubicin or 10 μM 5-FU for 24 h. (e) RT-qPCR analysis of ASB11 and XBPls mRNA expression in HCT116 cells transfected with XBP1s and/or treated with 3 μg/ml doxorubicin for 16 h. […] (f) Analysis of BIK ubiquitination in HCT116 cells transfected with indicated constructs and/or treated with 3 μg/ml doxorubicin for 16 h.

ASB11 [4] = experiment: Western blot analysis of ASB11 expression in HCT116 cells; conditions: p53-dependent manner, FIG. 5b
Experimental: as §1, §2

ASB11 mRNA [5] = experiment: RT-qPCR analysis of ASB11 mRNA expression in HCT116 cells treated with genotoxic agents; conditions: p53-proficient HCT116 cells, 24 h; FIG. 5a
Experimental: (§3) FIG. 5. […] (a) RT-qPCR analysis of ASB11 mRNA expression in indicated HCT116 cells treated with indicated dosages of doxorubicin or 5-FU for 24 h. […] (b) Western blot analysis of BIK and ASB11 expression in indicated HCT116 cells treated as in (a). (c) HCT116 p53^+/+ cells stably expressing control or ASB11 shRNA were treated with 10 μM 5-FU for 24 h and then with cycloheximide for indicated time points. Cells were lysed for Western blot analysis of BIK expression and the relative amounts of BIK are indicated on the bottom. The expression levels of ASB11 and BIK in the stable lines are shown on the bottom panel. (d) Western blot analysis of IRE1α expression and RT-qPCR analysis of XBP1 mRNA splicing in indicated HCT116 cells treated with 3 μg/ml doxorubicin or 10 μM 5-FU for 24 h. (e) RT-qPCR analysis of ASB11 and XBPls mRNA expression in HCT116 cells transfected with XBP1s and/or treated with 3 μg/ml doxorubicin for 16 h. […] (f) Analysis of BIK ubiquitination in HCT116 cells transfected with indicated constructs and/or treated with 3 μg/ml doxorubicin for 16 h. Total mRNA was extracted from cells using TRIZOL reagent (Invitrogen), and equal amounts of RNA were reverse transcribed to cDNA using the iScript™ cDNA Synthesis Kit (Bio-Rad). Quantitative real-time PCR was performed using the Power SYBR Green PCR Master kit (Applied Biosystems). […]

IRE1α = experiment: Western blot analysis of IRE1α expression in HCT116 cells; conditions: 3 μg/ml doxorubicin or 10 μM 5-FU, 24 h, p53-dependent manner, FIG. 5d
Experimental: as §1, §2

XBP1 mRNA splicing = experiment: RT-qPCR analysis of XBP1 mRNA splicing in HCT116 cells; conditions: 3 μg/ml doxorubicin or 10 μM 5-FU, 24 h, p53-dependent manner, FIG. 5d
Experimental: as §3

BIK [6] = experiment: Western blot analysis of BIK levels in 293T cells
Experimental: FIG. 2. […] (d) Western blot analysis of BIK levels in indicated cells stably expressing control or ASB11 shRNAs.
Cell extraction was performed with RIPA lysis buffer containing 50 mM Tris (pH 8.0), 0.15 M NaCl, 1% NP40, 1% sodium deoxycholate, 0.1% SDS, 1 mM PMSF, 1 µg/ml aprotinin, and 1 µg/ml leupeptin. Western blot was performed with the standard protocol. For an efficient detection of BIK by Western blot, Tricine-SDS-PAGE was used. Western blot analyses of other proteins were performed with Glycine-SDS-PAGE. Immunoprecipitation was performed and analyzed as previously described. Briefly, cell lysates were incubated with primary antibody for overnight. The Pure Proteome Protein A/G Magnetic Beads (LSKMAGA/G10, EMD Millipore) were then added into cell lysates and incubated for 1.5 h. The beads were washed with RIPA lysis buffer and the bound proteins were analyzed by Western blot.

ASB11 mRNA [7] = experiment: RT-qPCR analysis of ASB11 mRNA in H1299 cells treated with doxorubicin; conditions: p53-transfected H1299 cells
Experimental: Total mRNA was extracted from cells using TRIZOL reagent (Invitrogen), and equal amounts of RNA were reverse transcribed to cDNA using the iScript™ cDNA Synthesis Kit (Bio-Rad). Quantitative real-time PCR was performed using the Power SYBR Green PCR Master kit (Applied Biosystems). Amplification was performed on an ABI 7500 Fast Real-Time PCR system and GAPDH was used as an internal control.

ASB11 [8] = experiment: Western blot analysis of ASB11 protein expression under ER stress; conditions: multiple cell lines; 10 μg/ml tunicamycin or 200 nM thapsigargin, 16 h; FIG. 4a
Experimental: FIG. 4. ER stress stimulates BIK ubiquitination and degradation through ASB11 and p97. (a) Western blot analysis of BIK and ASB11 levels in 293T cells treated with 10 μg/ml tunicamycin or 200 nM of thapsigargin for 16 h. (b) Western blot analysis of BIK levels in 293T cells treated with 10 μg/ml tunicamycin for 12 h and then with 50 μg/ml cycloheximide for indicated time periods. The relative amounts of BIK are indicated on the bottom. (c, e) Analysis of endogenous (c) or exogenous (e) BIK ubiquitination in 293T cells (c) or 293T derivatives as in FIG. 2d (e) transfected with indicated constructs and treated with tunicamycin. (d) Western blot analysis of 293T derivatives as in FIG. 2d treated with 10 μg/ml tunicamycin for 16 h. (f) Western blot analysis of BIK levels in 293T derivatives co-treated with 10 μg/ml tunicamycin and MG132 for 16 h. (g) Western blot analysis of BIK expression in 293T cells co-treated with tunicamycin and 10 μM CB-5083 for 16 h. […]
as §2

Row | SMILES | BIK protein level (BIK [2]) | ASB11 protein level (ASB11 [4]) | ASB11 mRNA level (ASB11 mRNA [5]) | IRE1a level (IRE1α) | XBP1 mRNA splicing (XBP1 mRNA splicing) | further results
1 | Cc1cc(=O)oc2c(C=O)c(O)ccc12 [4μ8C, 7-Hydroxy-4-methyl-2-oxo-2H-1-benzopyran-8-carboxaldehyde] | – | – | – | – | – | killing effect of BIKDD on TNBC cells on combined administration [1]: enhanced
2 | O=c1[nH]cc(F)c(=O)[nH]1 [5-FU, 5-fluorouracil] | upregulated | downregulated | reduced | reduced | reduced | BIK protein stability (BIK [3]): increased
3 | Cc1cc2c(C(N)=O)cccc2n1-c1nc2c(c(NCc3ccccc3)n1)COCC2 [CB-5083] | – | – | – | – | – | effect on BIK downregulation induced by ER stress or ASB11 overexpression (BIK [6]; 293T cells, 10 μM CB-5083, 16 h, co-treated with tunicamycin, FIG. 4g): abrogated
4 | CC(C)C[C@@H](C=O)NC(=O)[C@H](CC(C)C)NC(=O)[C@H](CC(C)C)NC(=O)OCc1ccccc1 [MG132] (Cbz-Leu-Leu-Leu-aldehyde) | – | – | – | – | – | effect on the decrease of BIK protein level caused by ASB11 overexpression (BIK [6]; 293T cells transfected with ASB11, FIG. 2b): reversed
5 | COc1cccc2c1C(=O)c1c(O)c3c(c(O)c1C2=O)C[C@@](O)(C(=O)CO)C[C@@H]3O[C@H]1C[C@H](N)[C@H](O)[C@H](C)O1 [doxorubicin] | upregulated | downregulated | reduced | reduced | reduced | ASB11 mRNA (ASB11 mRNA [7]): downregulated
6 | C/C=C(/C)C(=O)O[C@H]1C(C)=C2[C@H]([C@@H]1OC(=O)CCCCCCC)[C@@](C)(OC(C)=O)C[C@H](OC(=O)CCC)[C@@]1(O)[C@H]2OC(=O)[C@@]1(C)O [thapsigargin] | – | – | – | – | – | ASB11 protein expression (ASB11 [8]): elevated; BIK protein level (BIK [6]; multiple cell lines, 10 μg/ml tunicamycin or 200 nM thapsigargin, 16 h, FIG. 4a): reduced
